Assay results taken from US10111819B2 (The Procter & Gamble Company, priority 2015, dated 2018).

Columns and labels:
human TRPV1 receptor = target: T1, human TRPV1 receptor (Homo sapiens, UniProt Q8NER1, M315I/T336M); experiment: FLIPR calcium flux, antagonists to CPC activation of TRPV1; format: cell-based; details: for Ca count CPC TRPV1 Receptor Antagonist / % inhibition of CPC activation: compound 1 mM (0.04% for extracts); for Ca count CPC TRPV1 Receptor Antagonist: 30 min preincubation, then CPC 100 uM; for inhibition at 1000 µM: read-out: % inhibition of CPC activation; for % inhibition of CPC activation: TRPV1, CPC 100 uM
T1 construct: expressed in transfected cells; host or cells: HEK-293
Description: HEK-293 (human embryonic kidney) cells stably transfected with human TRPV1 receptor (SEQ ID NO. 1) were grown in 15 ml growth medium [high glucose DMEM (Dulbecco's Modification of Eagle's Medium) supplemented with 10% FBS (fetal bovine serum)], 100 μg/ml Penicillin/streptomycin, 100 μg/ml G418] in a 75 Cm^2 flask for 3 days at 33° C. in a mammalian cell culture incubator set at 5% CO2. Cells were detached with addition of 10 ml of PBS (phosphate buffered saline) by hand shaking gently. Cells were transferred to a 50 ml tube and centrifuged at 850 rpm for 3 minutes to remove PBS. After centrifugation, a pellet of cells is formed in the bottom of the tube separating them from the supernatant solution. The supernatant was discarded and the cell pellet is suspended in 1 ml of fresh growth medium to which 5 μl (12.5 μg) of Fluo-4 AM (Molecular Probes, Inc.) calcium indicator was added and incubated for 30 min with gentle shaking. Fluo-4 AM is a fluorescent dye used for quantifying cellular Ca^2+ concentrations in the 100 nM to […] range. At the end of the 30 minutes, 45 ml of assay buffer [1×HBSS (Hank's Balanced Salt Solution), 20 mM HEPES (4-(2-Hydroxyethyl)-1-piperazineethanesulfonic acid)] was added to wash cells and the resulting combination is then centrifuged at 850 rpm for 3 minutes to remove excess buffer and Fluo-4 AM calcium indicator; following centrifugation the assay buffer was removed. The pelleted cells were re-suspended in 10 ml assay buffer and 90 μl aliquots (˜50,000 cells) per well delivered to a 96-well assay plate containing compounds (final concentration 1 mM for pure compounds, 0.04% for extracts) or buffer control and incubated at room temperature for 30 minutes. After 30 minutes, the plate was placed into a fluorometric imaging plate reader (FLIPR^TETRA from Molecular Devices) and basal fluorescence recorded (excitation wave length 488 nm and emission wave length 510 nm). The FLIPR assay is an accepted method for detecting changes in intracellular calcium concentration. […] For determining the direct effect of test compounds on TRPV1 receptor, fluorescence was measured immediately after addition of each compound.

[1] = concentration level where the cooling effect can be clearly recognized; cited from earlier work
human TRPA1 receptor = target: T2, human TRPA1 receptor (Homo sapiens, UniProt O75762, K186N/R3C/R58T); experiment: FLIPR calcium flux, antagonists to CPC activation of TRPA1; format: cell-based; details: for % inhibition of CPC activation: TRPA1, CPC 100 uM; for % inhibition of CPC activation / Ca count CPC TRPA1 Receptor Antagonist: compound 1 mM (0.04% for extracts); for Ca count CPC TRPA1 Receptor Antagonist: 30 min preincubation, then CPC 100 uM; for inhibition at 1000 µM: read-out: % inhibition of CPC activation
T2 construct: expressed in transfected cells; host or cells: HEK-293
Description: HEK-293 (human embryonic kidney) cells stably transfected with human TRPA1 receptor (SEQ ID NO. 2) were grown in 15 ml growth medium [high glucose DMEM (Dulbecco's Modification of Eagle's Medium) supplemented with 10% FBS (fetal bovine serum)], 100 μg/ml Penicillin/streptomycin, 100 μg/ml G418] in a 75 Cm^2 flask for 3 days at 37° C. in a mammalian cell culture incubator set at 5% CO2. Cells were detached with addition of 10 ml of PBS (phosphate buffered saline) by gentle hand shaking. Cells were transferred to a 50 ml tube and centrifuged at 850 rpm for 3 minutes to remove PBS. After centrifugation, a pellet of cells was formed in the bottom of the tube separating them from the supernatant solution. The supernatant was discarded and the cell pellet suspended in 1 ml of fresh growth medium to which 5 μl (12.5 μg) of Fluo-4 AM (Molecular Probes, Inc., Grand Island, N.Y.) calcium indicator was added and incubated for 30 min with gentle shaking. Fluo-4 AM is a fluorescent dye used for quantifying cellular Ca^2+ concentrations in the 100 nM to 1 microM range. At the end of the 30 minutes, 45 ml of assay buffer [1×HBSS (Hank's Balanced Salt Solution), 20 mM HEPES (4-(2-Hydroxyethyl)-1-piperazineethanesulfonic acid)] was added to wash cells and the resulting combination was then centrifuged at 850 rpm for 3 minutes to remove excess buffer and Fluo-4 AM calcium indicator; following centrifugation the assay buffer was removed. The pellet cells were re-suspended in 10 ml assay buffer and 90 μl aliquots (˜50,000 cells) per well delivered to a 96-well assay plate containing compounds (final concentration 1 mM for pure compounds, 0.04% for extracts) or buffer control and incubated at room temperature for 30 minutes. After 30 minutes, the plate was placed into a fluorometric imaging plate reader (FLIPR^TETRA from Molecular Devices, Sunnyvale, Calif.) and basal fluorescence recorded (excitation wave length 488 nm and emission wave length 510 nm). The FLIPR assay is an accepted method for detecting changes in intracellular calcium concentration. […] For determining the direct effect of test compounds on TRPA1 receptor, fluorescence was measured immediately after addition of each compound.

T1 sequence (Q8NER1 whole entry M315I/T336M): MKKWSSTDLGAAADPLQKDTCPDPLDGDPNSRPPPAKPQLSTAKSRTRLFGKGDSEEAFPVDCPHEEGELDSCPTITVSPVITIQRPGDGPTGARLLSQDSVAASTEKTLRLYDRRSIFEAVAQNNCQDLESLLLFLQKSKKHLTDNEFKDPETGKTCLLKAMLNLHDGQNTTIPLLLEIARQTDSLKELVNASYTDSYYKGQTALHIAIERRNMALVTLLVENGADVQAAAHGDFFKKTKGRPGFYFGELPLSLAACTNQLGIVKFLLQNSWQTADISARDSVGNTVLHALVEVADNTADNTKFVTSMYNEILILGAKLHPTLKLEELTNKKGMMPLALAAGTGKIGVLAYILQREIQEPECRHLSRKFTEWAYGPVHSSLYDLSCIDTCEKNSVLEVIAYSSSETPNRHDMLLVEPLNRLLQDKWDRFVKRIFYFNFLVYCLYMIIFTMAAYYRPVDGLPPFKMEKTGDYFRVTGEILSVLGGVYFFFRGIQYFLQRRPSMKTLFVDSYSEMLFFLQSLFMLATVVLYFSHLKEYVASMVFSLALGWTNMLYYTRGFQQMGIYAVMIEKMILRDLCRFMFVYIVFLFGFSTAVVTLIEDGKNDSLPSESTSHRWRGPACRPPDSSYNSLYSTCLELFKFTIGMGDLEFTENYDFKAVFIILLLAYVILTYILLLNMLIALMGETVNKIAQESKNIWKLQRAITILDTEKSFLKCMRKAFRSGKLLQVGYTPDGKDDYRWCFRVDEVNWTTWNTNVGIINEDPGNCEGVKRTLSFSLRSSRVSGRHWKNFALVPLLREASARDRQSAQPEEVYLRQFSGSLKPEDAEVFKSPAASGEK
T2 sequence (O75762 whole entry R3C/R58T/K186N): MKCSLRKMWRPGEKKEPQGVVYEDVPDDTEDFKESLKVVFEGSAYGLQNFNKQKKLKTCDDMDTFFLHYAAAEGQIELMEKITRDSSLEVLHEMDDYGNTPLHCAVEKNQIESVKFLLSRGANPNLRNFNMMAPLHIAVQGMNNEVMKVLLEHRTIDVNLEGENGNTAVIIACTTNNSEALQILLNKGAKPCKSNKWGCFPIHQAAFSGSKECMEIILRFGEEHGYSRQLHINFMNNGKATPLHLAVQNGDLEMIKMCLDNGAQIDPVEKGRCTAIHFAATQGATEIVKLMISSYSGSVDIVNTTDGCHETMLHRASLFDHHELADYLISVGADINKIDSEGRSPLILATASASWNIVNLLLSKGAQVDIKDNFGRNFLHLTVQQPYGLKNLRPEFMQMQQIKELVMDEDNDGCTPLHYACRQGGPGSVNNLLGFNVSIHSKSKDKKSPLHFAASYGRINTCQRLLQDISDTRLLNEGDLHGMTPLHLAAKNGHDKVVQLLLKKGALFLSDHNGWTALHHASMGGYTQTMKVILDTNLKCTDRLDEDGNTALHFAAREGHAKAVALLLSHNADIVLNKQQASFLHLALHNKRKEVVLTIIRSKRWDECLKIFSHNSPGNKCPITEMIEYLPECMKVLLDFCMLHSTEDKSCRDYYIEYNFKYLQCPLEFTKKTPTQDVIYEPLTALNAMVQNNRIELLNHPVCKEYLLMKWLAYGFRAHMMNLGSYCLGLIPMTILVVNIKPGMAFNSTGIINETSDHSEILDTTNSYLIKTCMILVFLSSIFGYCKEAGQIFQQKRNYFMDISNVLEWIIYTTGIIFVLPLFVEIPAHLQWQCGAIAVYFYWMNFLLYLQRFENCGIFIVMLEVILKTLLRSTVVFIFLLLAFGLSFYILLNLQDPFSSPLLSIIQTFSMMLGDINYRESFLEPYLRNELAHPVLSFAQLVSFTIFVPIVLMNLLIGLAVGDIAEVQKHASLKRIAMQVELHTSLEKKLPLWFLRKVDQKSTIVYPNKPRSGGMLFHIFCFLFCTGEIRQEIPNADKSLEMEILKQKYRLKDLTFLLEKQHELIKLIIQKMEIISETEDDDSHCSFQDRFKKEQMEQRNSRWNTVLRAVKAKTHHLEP

Compound	Ca count CPC TRPV1 Receptor Antagonist (human TRPV1 receptor)	inhibition at 1000 µM (human TRPV1 receptor)	Ca count CPC TRPA1 Receptor Antagonist (human TRPA1 receptor)	also measured
Nc1ccccc1C(=O)Oc1ccc2ccccc2c1 [2-Aminobenzoic Acid Naphthalen-2-Yl Ester]	4172 count	38.3%		
CCCCCC=CC(=O)O [2-Octenoic Acid, Predominantly Trans, 2-Octenoic Acid]	2878 count	78.3%		
CCCCCC=CC(C)=O [3-Nonen-2-one]	3470 count	43.6%		
CC(=O)CCc1ccc(O)cc1 [4-(4-Hydroxy-phenyl)-butan-2-one]	1127 count	67.8%		
COc1ccc(CCC(C)=O)cc1 [4-(4-Methoxyphenyl)-2-butanone]	1218 count	55.2%		
CCCC(=O)OC(C)(C)Cc1ccccc1 [Alpha,Alpha-Dimethylphenethyl Butyrate]	4246 count	45.2%		
CCCCOC(=O)C(C)C [Butyl Isobutyrate]	1504 count	57%		
CCCCCCCCCCOC(C)=O [Decyl Acetate]	2079 count	60.2%		
CC(C)[C@@H]1CC[C@@H](C)C[C@H]1O [L-menthol]				cooling threshold [1]: about 800 ppb
O=S(=O)([O-])[O-].[Mg+2] [Magnesium sulfate]				% inhibition of CPC activation (human TRPV1 receptor): 88.1%
Cc1occc(=O)c1OC(=O)C(C)C [Maltyl Isobutyrate]			2882 count	% inhibition of CPC activation (human TRPA1 receptor): 46.3%
COC(=O)CCCc1ccccc1 [Methyl 4-Phenylbutyrate]	3469 count	43.6%		
CC1(C)C2CC=C(CO)C1C2 (centres unmarked) [Myrtenol]			440 count	% inhibition of CPC activation (human TRPA1 receptor): 86.04%; % inhibition of CPC activation (human TRPA1 receptor; listed as myrtenol): 86%
CC1CCC(C(C)(C)S)C(=O)C1 (centres unmarked) [P-mentha-8-thiol-3-one]			3513 count	% inhibition of CPC activation (human TRPA1 receptor): 48.3%
CC(C)[C@@H]1CC[C@@H](C)C[C@@H]1O [Rinse 1-neomenthol, 1-neomenthol]				cooling threshold [1]: about 3,000 ppb
O=C(OC[C@H]1O[C@@H](OC(=O)c2cc(O)c(O)c(OC(=O)c3cc(O)c(O)c(O)c3)c2)[C@H](OC(=O)c2cc(O)c(O)c(OC(=O)c3cc(O)c(O)c(O)c3)c2)[C@@H](OC(=O)c2cc(O)c(O)c(OC(=O)c3cc(O)c(O)c(O)c3)c2)[C@@H]1OC(=O)c1cc(O)c(O)c(OC(=O)c2cc(O)c(O)c(O)c2)c1)c1cc(O)c(O)c(OC(=O)c2cc(O)c(O)c(O)c2)c1 [Tannic Acid]			321 count	inhibition at 1000 µM (human TRPA1 receptor): 95.3%
NCCc1ccc(O)cc1 [Uteramine]	1093 count	68.8%		
CC(=O)[O-].CC(=O)[O-].[Zn+2] [Zinc Acetate]	1351 count			% inhibition of CPC activation (human TRPV1 receptor): 89.8%
CC1=CCCC(C)(C)C1/C=C/C(C)O (stereo not drawn) [alpha-Ionol]	2620 count			% inhibition of CPC activation (human TRPV1 receptor): 66.2%
OC[C@H]1O[C@@H]2O[C@H]3[C@H](O)[C@@H](O)[C@@H](O[C@H]4[C@H](O)[C@@H](O)[C@@H](O[C@H]5[C@H](O)[C@@H](O)[C@@H](O[C@H]6[C@H](O)[C@@H](O)[C@@H](O[C@H]7[C@H](O)[C@@H](O)[C@@H](O[C@H]8[C@H](O)[C@@H](O)[C@@H](O[C@H]1[C@H](O)[C@H]2O)O[C@@H]8CO)O[C@@H]7CO)O[C@@H]6CO)O[C@@H]5CO)O[C@@H]4CO)O[C@@H]3CO [beta-Cyclodextrin]			2324 count	inhibition at 1000 µM (human TRPA1 receptor): 56.7%
CC1=C(/C=C/C(C)O)C(C)(C)CCC1 (stereo not drawn) [beta-Ionol]	1265 count			% inhibition of CPC activation (human TRPV1 receptor): 65.9%
CC(C)[C@@H]1CC[C@@H](C)C[C@@H]1O [d-neomenthol]				cooling threshold [1]: about 25,000 ppb
CCCOC(=O)c1cc(O)c(O)c(O)c1 [n-propyl gallate]			1844 count	inhibition at 1000 µM (human TRPA1 receptor): 65.6%
Manganese Citrate			4553 count	% inhibition of CPC activation (human TRPA1 receptor): 52.2%
Manganese Gluconate			2234 count	% inhibition of CPC activation (human TRPA1 receptor): 67.2%
